Measurements as given in US20260034094A1, “COMPOSITIONS AND METHODS FOR INDUCING FERROPTOSIS” (Kojin Therapeutics, Inc., priority 2022, published 2026).
Several values for one entry are separate records, joined by “and”; a condition that tells them apart may be missing. Identical values can stand only once. Like-named read-outs stand apart in the source and are kept apart here.

Columns and labels:
[1] = target: human recombinant GCL (Homo sapiens (Human), UniProt P48506); assay: GCL enzyme profiling assay (ADP-Glo luminescence); type: biochemical; conditions: human recombinant GCL 5 nM, 1 h preincubation with ATP
Procedure: The GCL enzyme assay was run in 50 mM HEPES, pH 7.5, containing 150 mM NaCl, 30 mM MgCl2, 0.5 mM EDTA, 1 mM DTT, 0.1 mg/mL BSA, and 0.02% or in the present case 0.2% F-127 in a total assay volume of 10 μL or 10 mL. Compound in pure DMSO was stamped in assay plates (Greiner black 384-well) or appropriate containers using a D300e digital dispenser (TECAN) and the final DMSO concentration was normalized to 1%. A 5 mL, or in the present case, 5 μL mixture of human recombinant GCL (final concentration: 5 nM) and ATP (final concentration: 0.6 mM) was added and the solution was incubated at room temperature (22° C.) for 1 h. The GCL enzyme reaction was initiated by addition of a 5 μL mixture of mono g-glutamate or in the present example, monosodium glutamate (final concentration: 1 mM) and a-aminobutyrate or α-aminobutyrate (final concentration: 1.2 mM). The reaction was stopped after 1 h or in the present case, 2 h by addition of 5 mL, or in the present case, 5 μL ADP GLO Reagent (Promega). The resulting solution was incubated for 2 h at room temperature. This was then followed by addition of 5 mL, or in the present case, 5 μL ADP GLO Detection. After incubation at room temperature for 30 min, the plates were read on a plate reader (PheraStar) using a luminescence protocol to quantify the GCL enzyme activity from each reaction solution. The data was analyzed using a four-parameter logistic equation to calculate IC50.

[2] = tested on: RKN cells; assay: RKN cell profiling assay (cell viability, CellTiter-Glo); type: cell-based; conditions: 96 h exposure
Procedure: RKN cells were suspended in assay medium (F-12 medium supplemented with 10% FBS and penicillin/streptomycin) and seeded at 1,000 cells per well (30 μL total volume) in opaque white 384-well plates (Corning). Cells were allowed to adhere for 24 h at 37° C. (95% humidity, 5% CO2) and then exposed to compounds disclosed herein for 72 h, or in the present case, 96 h. DMSO stock solutions of compounds were added to cells using a D300e Digital Dispenser (Tecan). The final DMSO concentration in each well was normalized to 0.5% (v/v) after compound treatment. Cell viability was measured using CellTiter-Glo (Promega). After incubation for 15 min at room temperature, luminescence was measured using a PHERAstar FSX microplate reader (BMG Labtech). Ferroptosis rescue experiments were performed as described previously using cells treated with ferrostatin-1 (fer-1, 1.5 μM) when seeding assay plates. Dose-response data were analyzed to determine EC50 values with GraphPad Prism 9 software using a four-parameter logistic equation or CDD Vault (Collaborative Drug Discovery) using the Levenberg-Marquardt algorithm.

[3] = 96 h, read-out: Cell Killing EC50

Chain of human recombinant GCL (P48506 whole entry): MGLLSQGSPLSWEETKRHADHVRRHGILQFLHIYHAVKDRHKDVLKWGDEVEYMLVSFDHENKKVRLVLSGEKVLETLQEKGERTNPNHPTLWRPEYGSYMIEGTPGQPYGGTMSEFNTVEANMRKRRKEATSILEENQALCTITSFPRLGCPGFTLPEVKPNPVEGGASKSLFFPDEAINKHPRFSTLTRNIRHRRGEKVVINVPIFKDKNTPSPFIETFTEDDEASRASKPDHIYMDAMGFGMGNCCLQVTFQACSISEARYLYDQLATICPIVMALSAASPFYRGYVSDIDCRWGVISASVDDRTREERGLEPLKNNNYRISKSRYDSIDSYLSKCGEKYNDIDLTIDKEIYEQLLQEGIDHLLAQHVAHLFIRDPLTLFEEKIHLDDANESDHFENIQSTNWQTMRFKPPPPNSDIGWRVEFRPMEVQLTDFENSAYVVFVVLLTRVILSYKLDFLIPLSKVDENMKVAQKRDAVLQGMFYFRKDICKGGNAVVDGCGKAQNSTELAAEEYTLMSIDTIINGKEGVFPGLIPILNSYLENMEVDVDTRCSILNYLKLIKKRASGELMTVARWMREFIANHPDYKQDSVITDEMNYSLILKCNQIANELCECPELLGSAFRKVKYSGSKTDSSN

Structure (SMILES)	IC50 ([1]; read-out: GCL IC50)	EC50 [2, 3] [mM]	IC50 ([1]; read-out: GCL IC50 (mM), individual values in parentheses)	EC50 ([2]; 96 h, read-out: Cell Killing EC50 (mM), individual values in parentheses) [mM]	EC50 ([2]; read-out: Cell Killing EC50 (mM), individual values in parentheses) [mM]
N=S(=O)(CCc1ccc(Cl)cc1)CC[C@H](N)C(=O)O (stereo partly drawn) [Compound 1, (2S)-2-amino-4-(2-(4-chlorophenyl)ethylsulfonimidoyl)butanoic acid]	≤ 0.02 mM	≥ 1			
N=S(=O)(CCc1ccccc1)CC[C@H](N)C(=O)O (stereo partly drawn) [Compound 2, (2S)-2-amino-4-(2-phenylethylsulfonimidoyl)butanoic acid]	0.02 to 2 mM	≥ 1			
N=S(=O)(CCc1cccc(C(F)(F)F)c1)CC[C@H](N)C(=O)O (some centres unmarked) [Compound 3]	0.02 to 2 mM	≥ 1			
N=S(=O)(CCc1cccc(OC(F)(F)F)c1)CC[C@H](N)C(=O)O (some centres unmarked) [Compound 4]	0.02 to 2 mM	≥ 1			
N=S(=O)(CCc1ccc(F)c(F)c1)CC[C@H](N)C(=O)O (some centres unmarked) [Compound 5]	≤ 0.02 mM	≥ 1			
N=S(=O)(CCc1ccncc1)CC[C@H](N)C(=O)O (some centres unmarked) [Compound 6]	> 2 mM and 0.02 to 2 mM	≥ 1	2.27 mM and > 1.62 mM		
N=S(=O)(CCc1cn[nH]c1)CC[C@H](N)C(=O)O (some centres unmarked) [Compound 8]	0.02 to 2 mM	≥ 1			
N=S(=O)(CCc1cnoc1)CC[C@H](N)C(=O)O (some centres unmarked) [Compound 9]	0.02 to 2 mM	< 1			
N=S(=O)(CCc1nccs1)CC[C@H](N)C(=O)O (some centres unmarked) [Compound 10]	> 2 mM	≥ 1			
Cc1ccc(CCS(=N)(=O)CC[C@H](N)C(=O)O)cc1 (some centres unmarked) [Compound 11]	≤ 0.02 mM	≥ 1			
COc1ccc(CCS(=N)(=O)CC[C@H](N)C(=O)O)cc1 (some centres unmarked) [Compound 12]	0.02 to 2 mM	≥ 1			
N=S(=O)(CCc1ccc(Cl)c(Cl)c1)CC[C@H](N)C(=O)O (some centres unmarked) [Compound 13]	≤ 0.02 mM	≥ 1			
N=S(=O)(CCc1ccccc1C(F)(F)F)CC[C@H](N)C(=O)O (some centres unmarked) [Compound 15]	≤ 0.02 mM	≥ 1		1.2	0.97
N=S(=O)(CCc1cccc(F)c1F)CC[C@H](N)C(=O)O (some centres unmarked) [Compound 16]	≤ 0.02 mM	< 1			
N=S(=O)(CCc1nc(-c2ccccc2)cs1)CC[C@H](N)C(=O)O (some centres unmarked) [Compound 17]	0.02 to 2 mM	≥ 1			
N=S(=O)(CCc1cccc2c1OC(F)(F)O2)CC[C@H](N)C(=O)O (some centres unmarked) [Compound 18]	0.02 to 2 mM	≥ 1			
N=S(=O)(CCc1ccccc1Cl)CC[C@H](N)C(=O)O (some centres unmarked) [Compound 19]	≤ 0.02 mM	< 1			
COc1ccccc1CCS(=N)(=O)CC[C@H](N)C(=O)O (some centres unmarked) [Compound 20]	0.02 to 2 mM	≥ 1			
N=S(=O)(CCc1ccccc1O)CC[C@H](N)C(=O)O (some centres unmarked) [Compound 21]	≤ 0.02 mM	< 1			
N=S(=O)(CCc1ccccc1F)CC[C@H](N)C(=O)O (some centres unmarked) [Compound 23]	0.02 to 2 mM	≥ 1			

Structure (SMILES)	IC50 ([1]; read-out: GCL IC50)	EC50 [2, 3] [mM]	IC50 ([1]; read-out: GCL IC50 (mM), individual values in parentheses)	EC50 ([2]; 96 h, read-out: Cell Killing EC50 (mM), individual values in parentheses) [mM]	EC50 ([2]; read-out: Cell Killing EC50 (mM), individual values in parentheses) [mM]
N=S(=O)(CCc1cccc(F)c1)CC[C@H](N)C(=O)O (some centres unmarked) [Compound 24]	≤ 0.02 mM	≥ 1			
N=S(=O)(CCc1cccc(Cl)c1Cl)CC[C@H](N)C(=O)O (some centres unmarked) [Compound 25]	0.02 to 2 mM	≥ 1			
Cc1c(F)cccc1CCS(=N)(=O)CC[C@H](N)C(=O)O (some centres unmarked) [Compound 26]	≤ 0.02 mM	< 1			
Cc1cccc(CCS(=N)(=O)CC[C@H](N)C(=O)O)c1C (some centres unmarked) [Compound 27]	0.02 to 2 mM	≥ 1			
N#Cc1ccccc1CCS(=N)(=O)CC[C@H](N)C(=O)O (some centres unmarked) [Compound 30]	≤ 0.02 mM	≥ 1			
N=S(=O)(CCc1cccc2ccccc12)CC[C@H](N)C(=O)O (some centres unmarked) [Compound 31]	≤ 0.02 mM	≥ 1			
Cc1cccc(C)c1CCS(=N)(=O)CC[C@H](N)C(=O)O (some centres unmarked) [Compound 32]	0.02 to 2 mM	≥ 1			
CCc1ccccc1CCS(=N)(=O)CC[C@H](N)C(=O)O (some centres unmarked) [Compound 33]	≤ 0.02 mM	≥ 1			
N=S(=O)(CCc1ccccc1C1CC1)CC[C@H](N)C(=O)O (some centres unmarked) [Compound 34]	0.02 to 2 mM	≥ 1			
Cc1noc(C)c1CCS(=N)(=O)CC[C@H](N)C(=O)O (some centres unmarked) [Compound 35]	0.02 to 2 mM	≥ 1			
N=S(=O)(CCc1ccc(C(F)(F)F)cc1C(F)(F)F)CC[C@H](N)C(=O)O (some centres unmarked) [Compound 36]	≤ 0.02 mM	< 1			
Cc1ccc(CCS(=N)(=O)CC[C@H](N)C(=O)O)c(F)c1 (some centres unmarked) [Compound 37]	≤ 0.02 mM	≥ 1			
CC(CS(=N)(=O)CC[C@H](N)C(=O)O)c1ccccc1Cl (some centres unmarked) [Compound 38]	0.02 to 2 mM	≥ 1			
Cc1ccc(Cl)c(CCS(=N)(=O)CC[C@H](N)C(=O)O)c1 (some centres unmarked) [Compound 39]	≤ 0.02 mM	≥ 1			
Cc1ccc(C(=O)O)cc1CCS(=N)(=O)CC[C@H](N)C(=O)O (some centres unmarked) [Compound 41]	0.02 to 2 mM	≥ 1			
Cc1cccc(Cl)c1CCS(=N)(=O)CC[C@H](N)C(=O)O (some centres unmarked) [Compound 42]	0.02 to 2 mM	≥ 1			
Cc1ccc(CCS(=N)(=O)CC[C@H](N)C(=O)O)c(Cl)c1 (some centres unmarked) [Compound 43]	≤ 0.02 mM	≥ 1			
Cc1ccc(C(F)(F)F)c(CCS(=N)(=O)CC[C@H](N)C(=O)O)c1 (some centres unmarked) [Compound 44]	≤ 0.02 mM	≥ 1			
Cc1ccc(-c2nn[nH]n2)cc1CCS(=N)(=O)CC[C@H](N)C(=O)O (some centres unmarked) [Compound 45]	≤ 0.02 mM	≥ 1			
N=S(=O)(CC[C@H](N)C(=O)O)C[C@H](O)c1ccccc1 (some centres unmarked) [Compound 46]	0.02 to 2 mM	≥ 1			

Structure (SMILES)	IC50 ([1]; read-out: GCL IC50)	EC50 [2, 3] [mM]	IC50 ([1]; read-out: GCL IC50 (mM), individual values in parentheses)	EC50 ([2]; 96 h, read-out: Cell Killing EC50 (mM), individual values in parentheses) [mM]	EC50 ([2]; read-out: Cell Killing EC50 (mM), individual values in parentheses) [mM]
CCC(CS(=N)(=O)CC[C@H](N)C(=O)O)c1ccccc1C(F)(F)F (some centres unmarked) [Compound 47]	> 2 mM	≥ 1			
N=S(=O)(CCc1cccs1)CC[C@H](N)C(=O)O (some centres unmarked) [Compound 48]	≤ 0.02 mM	≥ 1			
CC(C)(CCS(=N)(=O)CC[C@H](N)C(=O)O)c1ccccc1 (stereo partly drawn) [Compound 49, (2S)-2-amino-4-(3-methyl-3-phenylbutylsulfonimidoyl)butanoic acid]	0.02 to 2 mM	≥ 1			
N=S(=O)(CCCc1ccccc1)CC[C@H](N)C(=O)O (some centres unmarked) [Compound 51]	0.02 to 2 mM	≥ 1			
N=S(=O)(CCCCc1ccccc1)CC[C@H](N)C(=O)O (some centres unmarked) [Compound 52]	0.02 to 2 mM	≥ 1			
N=S(=O)(CCC(c1ccccc1)C(F)(F)F)CC[C@H](N)C(=O)O (some centres unmarked) [Compound 53]	0.02 to 2 mM	< 1			
N=S(=O)(CC[C@H](N)C(=O)O)CC[C@H](O)c1ccccc1 (some centres unmarked) [Compound 54]	0.02 to 2 mM	≥ 1			
N=S(=O)(CCC(c1ccccc1)c1ccccc1)CC[C@H](N)C(=O)O (some centres unmarked) [Compound 55]	0.02 to 2 mM	≥ 1			
Cc1ccc(C(C)(C)CCS(=N)(=O)CC[C@H](N)C(=O)O)cc1 (some centres unmarked) [Compound 56]	0.02 to 2 mM	≥ 1			
Cc1cccc(C(C)(C)CCS(=N)(=O)CC[C@H](N)C(=O)O)c1 (some centres unmarked) [Compound 57]	0.02 to 2 mM	≥ 1			
CC(C)(CCS(=N)(=O)CC[C@H](N)C(=O)O)c1ccc(F)cc1 (some centres unmarked) [Compound 58]	0.02 to 2 mM	≥ 1			
CC(C)(CCS(=N)(=O)CC[C@H](N)C(=O)O)c1ccccc1F (some centres unmarked) [Compound 59]	≤ 0.02 mM	< 1			
N=[S@](=O)(CC[C@H](c1ccccc1)C(F)(F)F)CC[C@H](N)C(=O)O [Compound 60]	≤ 0.02 mM	< 1			
N=[S@@](=O)(CC[C@H](N)C(=O)O)CC[C@@H](c1ccccc1)C(F)(F)F [Compound 61]	≤ 0.02 mM	< 1			
N=S(=O)(CC[C@H](N)C(=O)O)CCC1(c2ccccc2)CCC1 (some centres unmarked) [Compound 62]	≤ 0.02 mM	< 1			
CC(C)(CCS(=N)(=O)CC[C@H](N)C(=O)O)c1cnoc1 (some centres unmarked) [Compound 63]	0.02 to 2 mM	≥ 1			
N=S(=O)(CCC(c1c[nH]c2ccccc12)C(F)(F)F)CC[C@H](N)C(=O)O (some centres unmarked) [Compound 64]	≤ 0.02 mM	< 1			
CC(C)(CCS(=N)(=O)CC[C@H](N)C(=O)O)Cc1ccccc1 (some centres unmarked) [Compound 65]	≤ 0.02 mM	≥ 1			
